Patent US20080274882A1, “Insecticides Based on Selected Neonicotinoids and Strobilurins” (Bayer CropScience AG, priority 2004, published 2008)

Columns and labels:
[1] = system: Myzus persicae; test: Myzus persicae test (cabbage leaf dip); format: in vivo; details: for Kill in % after 1 day: Table A1; for Kill in % after 6 days: Table A2
[2] = system: Phaedon cochleariae larvae; test: Phaedon cochleariae larvae test (cabbage leaf dip)

CN/C(=N\[N+](=O)[O-])NCc1cnc(Cl)s1 [clothianidin]
Kill in % after 1 day ([1]; 0.8 ppm): 40%
Kill in % after 6 days ([1]; 0.8 ppm): 30%
Kill in % after 6^d ([2]; 4 ppm, Table B1): 20%
Kill in % after 6^d ([2]; 4 ppm, Table B2): 60%

CNC(=O)/C(=N/OC)c1ccccc1COc1cc(C)ccc1C [dimoxystrobin]
Kill in % after 6^d ([2]; 20 ppm, Table B2): 0%

CO/C=C(/C(=O)OC)c1ccccc1COc1cccc(C(F)(F)F)n1 [picoxystrobin]
Kill in % after 1 day ([1]; 100 ppm): 0%
Kill in % after 6^d ([2]; 100 ppm, Table B1): 0%

pyraclostrobin
Kill in % after 6 days ([1]; 100 ppm): 35%
